The values below come from US10065928B2, “Quinolinone compound and use thereof” (Sunshine Lake Pharma Co., Ltd., priority 2014, dated 2018).

The nature of series [1]: Pharmacokinetic assay in male SD rats (iv and oral). It is filed as in vivo. To be noted: for F: po 5 mg/kg vs iv 1 mg/kg; for AUC(0-t) / Cmax / Tmax / clearance / half-life / Vd: rat, plasma; for Vd: read-out: Vss. The protocol: Preparation of test compound solutions: the test compound solution was prepared for oral and intravenous administration by using 5% DMSO, 5% Solutol HS 15 and 90% normal saline.
Male SD rats weighing 190-250 g were randomly divided into two groups, and each group had three rats; one group was administered with test compound at a dose of 1.0 mg/kg by intravenous injection, the other group was administered with test compound at a dose of 5.0 mg/kg by oral. After administering, blood samples were collected at time points of 0.0833, 0.25, 0.5, 1.0, 2.0, 4.0, 7.0 and 24 h. Standard curve was plotted based on concentrations of the samples in a suitable range, and the concentrations of test compounds in plasma samples were determined by using AB SCIEX API4000 LC-MS/MS in MRM mode. Pharmacokinetic parameters were calculated according to drug concentration−time curve using a noncompartmental method with WinNonLin 6.3 software.

The test system of series [2] is erythropoietin (EPO) production in Hep3B cells. Briefly: Activity in inducing erythropoietin (EPO) production in vitro, Hep3B cells, EPO ELISA. It is filed as cell-based. To be noted: Homo sapiens, 24 h, EPO in supernatant by ELISA. Here is the method: The activities of compounds of the invention in inducing erythropoietin (EPO) production were assessed by using human live cancer cell strain Hep3B (ATCC: American type culture collection, Manassas, Va.). Hep3B cells seeded in a 96-well plate with a density of 2.5×10^4 cells/well were cultivated overnight in DMEM culture medium (Dulbecco's Modified Eagle's Medium) at 37° C. in the presence of 10% fetal bovine serum (FBS). The next day, the supernatant liquid of culture medium was abandoned by suction, and to the residue was added fresh DMEM (containing 0.5% DMSO, 0.5% FBS) containing compound of the invention with a series of concentrations (0.31160.00 μM) or containing solvent used for comparison. The cells were cultivated at 37° C. for 24 h. The supernatant liquid was collected and the EPO concentration of the supernatant was quantified by using human EPO ELISA kit (Abcam). The activity of each compound in inducing erythropoietin (EPO) production was represented by half maximal effective concentration (EC50).
(In general: ELISA stands for enzyme-linked immunosorbent assay.)

`Cn1c(=O)c(C(=O)NCC(=O)O)c(O)c2ccc(Oc3ccc(F)cc3)cc21` [Example 47, 2-(7-(4-fluorophenoxy)-4-hydroxy-1-methyl-2-oxo-1,2-dihydroquinoline-3-carboxamido)acetic acid] showed a F in series [1] of 90.7%. For the same molecule, in series [1] (iv, 1 mg/kg), the AUC(0-t) came out at 10200 ng·h/mL, the Cmax came to 6400 ng/mL, the Tmax was determined as 4.98 min and the clearance was found to be 1.66 mL/min/kg. Moreover, in series [1] (iv, 1 mg/kg), the half-life is 63.6 min and the Vd was found to be 0.144 L/kg. In series [1] (po, 5 mg/kg), the AUC(0-t) was 46200 ng·h/mL, the Cmax turned out to be 11500 ng/mL, the Tmax was determined as 30 min and the half-life is 158 min. The same molecule registered an EC50 in series [2] of 3.92 µM.

Molecule `Cn1c(=O)c(C(=O)NCC(=O)O)c(O)c2ccc(Oc3ccc(Cl)cc3)cc21` [Example 13, 2-(7-(4-chlorophenoxy)-4-hydroxy-1-methyl-2-oxo-1,2-dihydroquinoline-3-carboxamido)acetic acid] returned a F in series [1] of 94.6%. In series [1] (iv, 1 mg/kg), the area under the curve AUC(0-t) turned out to be 13100 ng·h/mL, the Cmax worked out at 8480 ng/mL, the Tmax turned out to be 4.98 min and the clearance is 1.32 mL/min/kg. In addition, in series [1] (iv, 1 mg/kg), the half-life was 57.5 min and the Vd is 0.107 L/kg. For the same molecule, in series [1] (po, 5 mg/kg), the AUC(0-t) came to 57000 ng·h/mL, the highest level (Cmax) was 12300 ng/mL, the Tmax is 70.2 min and the half-life was 254 min. It took 7.1 µM to reach a half-maximal effect in series [2] (EC50).

In series [1], `Cn1c(=O)c(C(=O)NCC(=O)O)c(O)c2ccc(Oc3cc(Cl)ccc3F)cc21` [Example 22, 2-(7-(5-chloro-2-fluorophenoxy)-4-hydroxy-1-methyl-2-oxo-1,2-dihydroquinoline-3-carboxamido)acetic acid] gave an F of 108.6%. For the same molecule, in series [1] (iv, 1 mg/kg), the AUC(0-t) is 10800 ng·h/mL, the Cmax amounted to 10100 ng/mL, the Tmax was found to be 4.98 min and the clearance is 1.56 mL/min/kg. In addition, in series [1] (iv, 1 mg/kg), the half-life is 57.5 min and the Vd turned out to be 0.146 L/kg. Moreover, in series [1] (po, 5 mg/kg), the AUC(0-t) came out at 58700 ng·h/mL, the concentration peaked (Cmax) at 10700 ng/mL, the Tmax came to 50 min and the half-life is 167 min. For the same molecule, a half-maximal effect in series [2] (EC50) was put at 4.18 µM.

On to `Cn1c(=O)c(C(=O)NCC(=O)O)c(O)c2ccc(Oc3ccc(F)cc3Cl)cc21` [Example 28, 2-(7-(2-chloro-4-fluorophenoxy)-4-hydroxy-1-methyl-2-oxo-1,2-dihydroquinoline-3-carboxamido)acetic acid], for which, in series [1], the F is 107.8%. In addition, in series [1] (iv, 1 mg/kg), the AUC(0-t) turned out to be 6200 ng·h/mL, the highest level (Cmax) was 4170 ng/mL, the Tmax was found to be 4.98 min and the clearance amounted to 2.67 mL/min/kg. In series [1] (iv, 1 mg/kg), the half-life was 59.4 min and the Vd is 0.217 L/kg. Besides, in series [1] (po, 5 mg/kg), the AUC(0-t) turned out to be 33300 ng·h/mL, the Cmax was 11700 ng/mL, the Tmax turned out to be 55 min and the half-life is 106 min. For the same molecule, the EC50 in series [2] stood at 1.51 µM.

`O=C(O)CNC(=O)c1c(O)c2ccc(Oc3ccccc3)cc2n(CC2CC2)c1=O` [Example 2, 2-(1-(cyclopropylmethyl)-4-hydroxy-2-oxo-7-phenoxy-1,2-dihydroquinoline-3-carboxamido)acetic acid]: the F in series [1] was found to be 100.4%. For the same molecule, in series [1] (iv, 1 mg/kg), the AUC(0-t) came to 20200 ng·h/mL, the concentration peaked (Cmax) at 7190 ng/mL, the Tmax stood at 13.3 min and the clearance is 0.833 mL/min/kg. In addition, in series [1] (iv, 1 mg/kg), the half-life was 224 min and the Vd amounted to 0.159 L/kg. In series [1] (po, 5 mg/kg), the AUC(0-t) worked out at 101000 ng·h/mL, the highest level (Cmax) was 13200 ng/mL, the Tmax came out at 130 min and the half-life is 239 min. Moreover, the EC50 in series [2] turned out to be 5 µM.

Broadly, the AUC(0-t) is exposure summed from dosing to a finite time, without extrapolation to infinity. A high value points to high exposure. Usually Cmax stands for the maximum level reached in the sampled fluid or tissue. As usually defined, the Tmax is the time from dosing to the highest level. As a reminder, the half-life is the time needed for the level to fall by half in the phase considered. A low value points to fast loss. The term EC50 denotes the concentration at which the effect is half-maximal. Higher therefore signals weaker potency.
